From patent US20160095897A1 (priority 2013, published 2016)
Where two headings read alike, the source gives them in different places.

Tests used:
[1] = test system: IAV A/PR/8/34; assay type: in vivo, mice; details: lethal dose
[2] = test system: IAV A/PR/8/34 (H1N1); assay type: in vivo; details: mice, IAV A/PR/8/34 (H1N1) 40 or 60% lethal doses, pepducin p4pal-10 10 μg

Substance: N-palmitoyl-SGRRYGHALR-NH2 (HELM PEPTIDE1{[CCCCCCCCCCCCCCCC(=O)[*:2]].S.G.R.R.Y.G.H.A.L.R.[am]}$$$$V2.0; SMILES CCCCCCCCCCCCCCCC(=O)N[C@@H](CO)C(=O)NCC(=O)N[C@@H](CCCNC(=N)N)C(=O)N[C@@H](CCCNC(=N)N)C(=O)N[C@@H](Cc1ccc(O)cc1)C(=O)NCC(=O)N[C@@H](Cc1c[nH]cn1)C(=O)N[C@@H](C)C(=O)N[C@@H](CC(C)C)C(=O)N[C@@H](CCCNC(=N)N)C(N)=O) [pepducin p4pal-10]
- IL1-β level in BAL ([1]; day 3 post-inoculation, ELISA): not at day 3
- IL-6 level in BAL ([1]; day 3 post-inoculation, ELISA): not at day 3
- MIP-2 level in BAL ([1]; day 3 post-inoculation, ELISA): not at day 3
- level of total proteins in BAL ([1]; day 6 post-inoculation): significantly reduced
- IFN-γ level in BAL ([1]; day 6 post-inoculation, ELISA): significantly reduced
- IL1-β level in BAL ([1]; day 6 post-inoculation, ELISA): significantly reduced
- IL-6 level in BAL ([1]; day 6 post-inoculation, ELISA): significantly reduced
- MIP-2 level in BAL ([1]; day 6 post-inoculation, ELISA): significantly reduced
- KC level in BAL ([1]; treated vs not treated): similar
- RANTES level in BAL ([1]; treated vs not treated): similar
- death [2]: protected mice from weight loss and death
- weight loss [2]: protected mice from weight loss
